In PubChem BioAssay (NCI):
Where “and” joins values, the source holds several entries; their conditions need not be identical. Equal values may be shown once.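 These data come from cells grown in 96-well plates and exposed to compound for 48 hours at five concentrations. GI50 = concentration required for 50% inhibition of growth. TGI: concentration producing complete growth inhibition.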

Tests used:
Test in all cases: NCI anticancer screen, dose series, 48 h
CAKI-1 renal = system: CAKI-1 renal
SR leukemia = system: SR leukemia
RXF 393 renal = system: RXF 393 renal
OVCAR-4 ovarian = system: OVCAR-4 ovarian
SK-MEL-5 melanoma = system: SK-MEL-5 melanoma
IGROV1 ovarian = system: IGROV1 ovarian
M14 melanoma = system: M14 melanoma
NCI/ADR-RES ovarian = system: NCI/ADR-RES ovarian
SF-295 CNS = system: SF-295 CNS
HT29 colon = system: HT29 colon
SK-MEL-28 melanoma = system: SK-MEL-28 melanoma
786-0 renal = system: 786-0 renal
NCI-H226 lung = system: NCI-H226 lung
K-562 leukemia = system: K-562 leukemia
SK-MEL-2 melanoma = system: SK-MEL-2 melanoma
PC-3 prostate = system: PC-3 prostate
MDA-MB-435 = system: MDA-MB-435
HS 578T breast = system: HS 578T breast
NCI-H23 lung = system: NCI-H23 lung
TK-10 renal = system: TK-10 renal
UACC-62 melanoma = system: UACC-62 melanoma
OVCAR-5 ovarian = system: OVCAR-5 ovarian
CCRF-CEM leukemia = system: CCRF-CEM leukemia
ACHN renal = system: ACHN renal
LOX IMVI melanoma = system: LOX IMVI melanoma
SN12C renal = system: SN12C renal
SK-OV-3 ovarian = system: SK-OV-3 ovarian
A549 NSCLC = system: A549 NSCLC
DU-145 prostate = system: DU-145 prostate
KM12 colon = system: KM12 colon
HOP-92 NSCLC = system: HOP-92 NSCLC
MCF7 breast = system: MCF7 breast
UO-31 renal = system: UO-31 renal
UACC-257 melanoma = system: UACC-257 melanoma
HCT-116 colon = system: HCT-116 colon
U251 CNS = system: U251 CNS
A498 renal = system: A498 renal
HCC-2998 colon = system: HCC-2998 colon
HOP-62 NSCLC = system: HOP-62 NSCLC
HL-60(TB) leukemia = system: HL-60(TB) leukemia
SNB-75 CNS = system: SNB-75 CNS
RPMI-8226 leukemia = system: RPMI-8226 leukemia
MDA-MB-231 breast = system: MDA-MB-231 breast
HCT-15 colon = system: HCT-15 colon
SNB-19 CNS = system: SNB-19 CNS
MDA-N = system: MDA-N
SF-268 CNS = system: SF-268 CNS
OVCAR-8 ovarian = system: OVCAR-8 ovarian
NCI-H522 lung = system: NCI-H522 lung
SW-620 colon = system: SW-620 colon
OVCAR-3 ovarian = system: OVCAR-3 ovarian
SF-539 CNS = system: SF-539 CNS
NCI-H460 lung = system: NCI-H460 lung
MOLT-4 leukemia = system: MOLT-4 leukemia
MALME-3M melanoma = system: MALME-3M melanoma
T-47D breast = system: T-47D breast
BT-549 breast = system: BT-549 breast
EKVX NSCLC = system: EKVX NSCLC
COLO 205 colon = system: COLO 205 colon

CN(C)c1ccc(/C=c2/c3cc(O)ccc3n3c2cc(-c2ccccc2)[n+]3C)cc1
TGI (CAKI-1 renal): > 100 µM
TGI (SR leukemia): 4.41 µM
TGI (RXF 393 renal): 3.54 µM
GI50 (OVCAR-4 ovarian): 2.83 µM
TGI (OVCAR-4 ovarian): > 100 µM
TGI (SK-MEL-5 melanoma): 2.04 µM
TGI (IGROV1 ovarian): 1.47 µM
TGI (M14 melanoma): 2.89 µM
TGI (NCI/ADR-RES ovarian): > 100 µM
TGI (SF-295 CNS): > 100 µM
TGI (HT29 colon): 3.86 µM
TGI (SK-MEL-28 melanoma): 2.36 µM
GI50 (786-0 renal): 1.31 µM
TGI (NCI-H226 lung): > 100 µM
GI50 (K-562 leukemia): 1.01 µM
TGI (SK-MEL-2 melanoma): 2.55 µM
TGI (PC-3 prostate): 2.25 µM
TGI (MDA-MB-435): 2.29 µM
TGI (HS 578T breast): 1.25 µM
TGI (NCI-H23 lung): 4.64 µM
GI50 (TK-10 renal): 4.88 µM
TGI (TK-10 renal): > 100 µM
GI50 (UACC-62 melanoma): > 100 µM
GI50 (OVCAR-5 ovarian): 6.04 µM
TGI (OVCAR-5 ovarian): > 100 µM
TGI (CCRF-CEM leukemia): 4.1 µM
GI50 (ACHN renal): 4.78 µM
TGI (ACHN renal): > 100 µM
TGI (LOX IMVI melanoma): 2.47 µM
GI50 (SN12C renal): 0.187 µM
GI50 (SK-OV-3 ovarian): 6.13 µM
TGI (SK-OV-3 ovarian): > 100 µM
TGI (A549 NSCLC): > 100 µM
TGI (DU-145 prostate): 6.07 µM
TGI (KM12 colon): 2.29 µM
TGI (HOP-92 NSCLC): 3.9 µM
GI50 (MCF7 breast): 1.18 µM
TGI (MCF7 breast): > 100 µM
GI50 (UO-31 renal): 4.45 µM
TGI (UO-31 renal): 31.7 µM
TGI (UACC-257 melanoma): 3.07 µM
GI50 (HCT-116 colon): 1.1 µM
TGI (U251 CNS): 1.52 µM
GI50 (A498 renal): > 100 µM
TGI (A498 renal): > 100 µM
TGI (HCC-2998 colon): > 100 µM
TGI (HOP-62 NSCLC): 4.37 µM
TGI (HL-60(TB) leukemia): 1.05 µM
TGI (SNB-75 CNS): 1.95 µM
GI50 (RPMI-8226 leukemia): 1.35 µM
TGI (MDA-MB-231 breast): 2.82 µM
TGI (HCT-15 colon): > 100 µM
GI50 (SNB-19 CNS): 0.277 µM
TGI (SNB-19 CNS): 1.7 µM and 1.47 µM
TGI (MDA-N): 1.96 µM
TGI (SF-268 CNS): 1.55 µM
TGI (OVCAR-8 ovarian): 2.03 µM
TGI (NCI-H522 lung): 1.75 µM
GI50 (SW-620 colon): 1.77 µM

O=C(CCN1CCCN(c2cnc3ccccc3n2)CC1)c1csc2ccccc12
GI50 (CAKI-1 renal): 17.8 µM
TGI (CAKI-1 renal): 31.7 µM
GI50 (OVCAR-3 ovarian): 18.9 µM
TGI (OVCAR-3 ovarian): 32.9 µM
GI50 (SR leukemia): 24 µM
TGI (SR leukemia): 56.7 µM
GI50 (RXF 393 renal): 19.4 µM
TGI (RXF 393 renal): 37.5 µM
GI50 (OVCAR-4 ovarian): 18.5 µM
TGI (OVCAR-4 ovarian): 35.1 µM
GI50 (SK-MEL-5 melanoma): 16.2 µM
TGI (SK-MEL-5 melanoma): 30 µM
GI50 (IGROV1 ovarian): 16.2 µM
TGI (IGROV1 ovarian): 31.2 µM
GI50 (M14 melanoma): 19.8 µM
TGI (M14 melanoma): 39.3 µM
GI50 (NCI/ADR-RES ovarian): 21.3 µM
TGI (NCI/ADR-RES ovarian): 49.5 µM
GI50 (SF-295 CNS): 58 µM
TGI (SF-295 CNS): > 100 µM
GI50 (HT29 colon): 13 µM
TGI (HT29 colon): 28.2 µM
GI50 (SK-MEL-28 melanoma): 20.6 µM
TGI (SK-MEL-28 melanoma): 37.1 µM
GI50 (786-0 renal): 18.4 µM
TGI (786-0 renal): 32.3 µM
GI50 (NCI-H226 lung): 21.1 µM
TGI (NCI-H226 lung): 38.5 µM
GI50 (K-562 leukemia): 20 µM
TGI (K-562 leukemia): 48.6 µM
GI50 (SK-MEL-2 melanoma): 27.3 µM
TGI (SK-MEL-2 melanoma): 76.5 µM
GI50 (PC-3 prostate): 21.3 µM
TGI (PC-3 prostate): 50.6 µM
GI50 (MDA-MB-435): 18.1 µM
TGI (MDA-MB-435): 32.2 µM
GI50 (HS 578T breast): 20 µM
TGI (HS 578T breast): 51.5 µM
GI50 (NCI-H23 lung): 20.8 µM
TGI (NCI-H23 lung): 46.7 µM
GI50 (TK-10 renal): 16.1 µM
TGI (TK-10 renal): 29.5 µM
GI50 (SF-539 CNS): 18.9 µM
TGI (SF-539 CNS): 33.2 µM
GI50 (UACC-62 melanoma): 19.7 µM
TGI (UACC-62 melanoma): 34.2 µM
GI50 (OVCAR-5 ovarian): 28.9 µM
TGI (OVCAR-5 ovarian): > 100 µM
GI50 (CCRF-CEM leukemia): 12.5 µM
TGI (CCRF-CEM leukemia): 63.1 µM
GI50 (ACHN renal): 17.9 µM
TGI (ACHN renal): 31.8 µM
GI50 (LOX IMVI melanoma): 17.2 µM
TGI (LOX IMVI melanoma): 31.3 µM
GI50 (SN12C renal): 21.9 µM
TGI (SN12C renal): 44.7 µM
GI50 (SK-OV-3 ovarian): > 100 µM
TGI (SK-OV-3 ovarian): > 100 µM
GI50 (A549 NSCLC): > 100 µM
TGI (A549 NSCLC): > 100 µM
GI50 (DU-145 prostate): 16.6 µM
TGI (DU-145 prostate): 32.4 µM
GI50 (KM12 colon): 16 µM
TGI (KM12 colon): 29.4 µM
GI50 (NCI-H460 lung): 32.8 µM
TGI (NCI-H460 lung): > 100 µM
GI50 (MOLT-4 leukemia): 26 µM
TGI (MOLT-4 leukemia): 57.9 µM
GI50 (MALME-3M melanoma): 18 µM
TGI (MALME-3M melanoma): 32.1 µM
GI50 (T-47D breast): 11 µM
TGI (T-47D breast): 25.3 µM
GI50 (HOP-92 NSCLC): 15.8 µM
TGI (HOP-92 NSCLC): 34 µM
GI50 (MCF7 breast): 3.2 µM
TGI (MCF7 breast): 16.4 µM
GI50 (UO-31 renal): 14.8 µM
TGI (UO-31 renal): 28 µM
GI50 (UACC-257 melanoma): 26.1 µM
TGI (UACC-257 melanoma): 63.2 µM
GI50 (HCT-116 colon): 16.5 µM
TGI (HCT-116 colon): 30.1 µM
GI50 (U251 CNS): 17.6 µM
TGI (U251 CNS): 31.4 µM
GI50 (A498 renal): 96.7 µM
TGI (A498 renal): > 100 µM
GI50 (HCC-2998 colon): 16.9 µM
TGI (HCC-2998 colon): 33.2 µM
GI50 (HOP-62 NSCLC): 28.1 µM
TGI (HOP-62 NSCLC): 77.3 µM
GI50 (BT-549 breast): 18.4 µM
TGI (BT-549 breast): 32.3 µM
GI50 (HL-60(TB) leukemia): 27.2 µM
TGI (HL-60(TB) leukemia): 59.7 µM
GI50 (SNB-75 CNS): 17.2 µM
TGI (SNB-75 CNS): 31.6 µM
GI50 (RPMI-8226 leukemia): 12.6 µM
TGI (RPMI-8226 leukemia): 41.8 µM
GI50 (MDA-MB-231 breast): 21.2 µM
TGI (MDA-MB-231 breast): 37 µM
GI50 (HCT-15 colon): 18.9 µM
TGI (HCT-15 colon): 34.8 µM
GI50 (SNB-19 CNS): 36.7 µM
TGI (SNB-19 CNS): > 100 µM
GI50 (SF-268 CNS): 19.4 µM
TGI (SF-268 CNS): 38.6 µM
GI50 (OVCAR-8 ovarian): 21.6 µM
TGI (OVCAR-8 ovarian): 48.4 µM
GI50 (EKVX NSCLC): 19.6 µM
TGI (EKVX NSCLC): 38.7 µM
GI50 (COLO 205 colon): 17.6 µM
TGI (COLO 205 colon): 33.4 µM
GI50 (NCI-H522 lung): 17.3 µM
TGI (NCI-H522 lung): 31.7 µM
GI50 (SW-620 colon): 17.4 µM
TGI (SW-620 colon): 33.3 µM
